Reference: paper PMC12920294, “Optimizing uPAR-targeting radiopeptides for improved tissue distribution: progress towards radionuclide therapy” (European Journal of Nuclear Medicine and Molecular Imaging, 2025)
Like-named read-outs stand apart in the source and are kept apart here. Marks after values point to notes of the source that are not given here.

Experiments:
[1] = in vivo; conditions: CD1 nude, mouse, 0.5 nmol/mouse, total radioactivity
[2] = biological target: T1, mouse serum albumin (Mus musculus, UniProt P07724); assay type: in vitro ADME
T1 construct: tissue Rockland Immunochemicals Inc., USA Lot: 32321; host or cells: mouse blood plasma
T1 sequence (P07724 25-608): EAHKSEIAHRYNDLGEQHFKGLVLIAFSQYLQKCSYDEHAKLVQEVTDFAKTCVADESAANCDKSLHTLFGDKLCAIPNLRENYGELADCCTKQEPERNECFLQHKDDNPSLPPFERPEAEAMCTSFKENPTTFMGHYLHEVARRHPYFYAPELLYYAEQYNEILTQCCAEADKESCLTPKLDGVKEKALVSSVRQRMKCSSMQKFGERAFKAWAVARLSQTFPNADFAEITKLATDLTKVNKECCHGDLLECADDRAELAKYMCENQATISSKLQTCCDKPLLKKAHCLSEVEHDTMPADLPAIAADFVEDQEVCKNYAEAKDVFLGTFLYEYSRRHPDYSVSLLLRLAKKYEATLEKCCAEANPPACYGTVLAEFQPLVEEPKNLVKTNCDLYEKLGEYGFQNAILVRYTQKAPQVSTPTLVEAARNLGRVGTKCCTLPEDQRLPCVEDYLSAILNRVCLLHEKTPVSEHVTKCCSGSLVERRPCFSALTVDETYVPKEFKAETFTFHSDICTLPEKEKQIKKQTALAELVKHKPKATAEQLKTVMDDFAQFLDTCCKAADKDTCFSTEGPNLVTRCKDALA
Description: (§1) The albumin-binding properties of the radiopeptides in mouse and human blood plasma were determined using an ultrafiltration assay with Amicon centrifugal filters (cut-off of 10 kDa; Merck Millipore) as previously reported (Supplementary Material). A fixed amount of the respective radiopeptide (~ 300 kBq, 15 µL, 6 pmol) was added to a defined volume (150 µL) of mouse and human blood plasma dilutions to obtain [mouse serum albumin]-to-[radiopeptide] molar concentration ratios of 0.01‒12,500 and [human serum albumin]-to-[radiopeptide] molar concentration ratios of 0.01‒20,000. The data were analyzed using a semi-logarithmic Hill plot with the maximum binding set as 100% using GraphPad Prism software (version 10.1.1). The half-maximum binding (B50 values) of each radiopeptide was expressed as relative values using the inverse ratios with the value of [^177Lu]Lu-uPAR-11 set as 1.0. […] The samples were incubated at 37 °C for 30 min. Ice-cold PBS (150 µL, pH 7.4) was added before loading the blood plasma samples on Amicon centrifugal filters (cut-off of 10 kDa; Merck Millipore) followed by centrifugation (14000 rcf, 4 °C, 30 min) to allow the separation of the plasma protein-bound from the unbound (free) fractions of each sample. The inserts of the filter devices were inverted and centrifuged at 200 rcf for 3 min to recover the protein-bound radiopeptide. The activity of the protein-bound fraction was measured using a γ-counter (Wallac Wizard 1480, PerkinElmer). The activity in the filtrate and filter unit was counted in the γ-counter and the counts were combined, assuming that the fraction retained in the filter membrane was not bound to proteins. The protein-bound fraction was expressed as percentage of the whole activity (i.e. plasma protein-bound activity, activity measured in the filtrate and activity measured in the filter (set as 100%)). The data were analyzed using a semi-logarithmic plot assuming a maximum binding of 100%. The Hill equation was fitted to the data points, and the half-maximum binding (B50) was determined based on the obtained binding curves using GraphPad Prism software (version 10.1.1). To quantitatively express and compare the albumin-binding properties of the radiopeptides, the relative albumin-binding affinity was expressed as the inverse half-maximal-binding (B50) of the respective radioligand to that of [^177Lu]Lu-uPAR-11, which was set as 1.0. The results were presented as the value obtained from the average curve from 3 independent experiments.

[3] = tested on: HEK-uPAR xenograft-bearing mice; conditions: mouse, in vivo
[4] = assay type: in vitro ADME; conditions: 1 µM
Description: The ^177Lu-labeled peptides (50 MBq/nmol) were incubated in mouse or human blood plasma (10 MBq/200 µL) over an incubation period of 24 h at 37 °C. Aliquots and control samples of the radiopeptides diluted in saline were analyzed after 1 h, 4 h and 24 h using thin layer chromatography (TLC) as previously reported (Supplementary Material). The distribution coefficients (logD values) of the ^177Lu-labeled peptides (50 MBq/nmol) were determined using a shake-flask method according to a previously published procedure (Supplementary Material).
Methods: A sample of each radiopeptide (50 MBq/nmol) was added to mouse blood plasma (Lot: 32321, Rockland Immunochemicals Inc., USA) or to human blood plasma (Stiftung Blutspende SRK Aargau-Solothurn, Switzerland) to obtain an activity concentration of 10 MBq/200 µL. The test samples were incubated at 37 °C for up to 24 h. Control samples referred to the radiopeptides which were instead diluted in saline at an activity concentration of 10 MBq/200 µL. Aliquots of each sample (2 µL, ~100 kBq) were taken after 1 h, 4 h and 24 h and investigated by means of thin layer chromatography (TLC). The employed method involved reversed-phase TLC plates (MERCK Analytical Chromatography, TLC Silica gel 60 RP-18 F254s) as stationary phase and ACN/citrate buffer (3:7; v/v; pH 5.5) as mobile phase. After the eluent reached the front line, the TLC plates were dried and exposed to a phosphor screen (Super resolution screen PSR10450013, PerkinElmer) for 1 min. The respective screen was developed using a storage phosphor system (Cyclone Plus, PerkinElmer) and analyzed using the OptiQuant Software (version 5.0, Bright Instrument Co Ltd., PerkinElmer).

[5] = biological target: human serum albumin (Homo sapiens, UniProt P02768); assay type: in vitro ADME; set-up: tissue Stiftung Blutspende SRK Aargau-Solothurn, Switzerland; host or cells: human blood plasma
human serum albumin, sequence (P02768 25-609): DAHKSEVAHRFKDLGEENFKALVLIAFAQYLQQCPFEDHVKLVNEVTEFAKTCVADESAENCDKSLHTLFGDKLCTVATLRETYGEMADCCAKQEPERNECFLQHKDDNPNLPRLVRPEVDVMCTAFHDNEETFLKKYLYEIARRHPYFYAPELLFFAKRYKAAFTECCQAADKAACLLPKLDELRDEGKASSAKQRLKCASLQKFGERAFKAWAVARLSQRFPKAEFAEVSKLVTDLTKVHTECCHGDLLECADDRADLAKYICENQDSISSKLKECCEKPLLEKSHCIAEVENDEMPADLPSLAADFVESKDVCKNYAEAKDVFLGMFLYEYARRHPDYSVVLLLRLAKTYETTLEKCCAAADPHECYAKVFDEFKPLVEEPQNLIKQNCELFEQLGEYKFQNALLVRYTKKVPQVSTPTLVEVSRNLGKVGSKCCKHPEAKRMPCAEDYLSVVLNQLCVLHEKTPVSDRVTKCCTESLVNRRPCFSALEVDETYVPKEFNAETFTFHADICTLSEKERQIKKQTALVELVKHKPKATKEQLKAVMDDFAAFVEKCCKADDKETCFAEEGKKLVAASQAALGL
Description: as §1

Structure (SMILES): Cc1ccc(CCCC(=O)NCCOCCOCCOCCOCCC(=O)NCCCC[C@H](NC(=O)CN2CCN(CC(=O)O)CCN(CC(=O)O)CCN(CC(=O)O)CC2)C(=O)N[C@@H](CC(=O)O)C(=O)N[C@@H](CC2CCCCC2)C(=O)N[C@@H](Cc2ccccc2)C(=O)N[C@H](CO)C(=O)N[C@H](CCCNC(=N)N)C(=O)N[C@@H](Cc2ccc(O)cc2)C(=O)N[C@@H](CC(C)C)C(=O)N[C@@H](Cc2c[nH]c3ccccc23)C(=O)N[C@@H](CO)C(N)=O)cc1 [[^177Lu]Lu-uPAR-11, metal not drawn]
- tissue uptake at 1 h ([1]; Blood uptake): 13 ± 2 %ID/g
- tissue uptake at 4 h ([1]; Blood uptake): 5 ± 0.6 %ID/g
- tissue uptake at 24 h ([1]; Blood uptake): < 0.03 %ID/g
- tissue uptake at 48 h ([1]; Blood uptake): < 0.03 %ID/g
- tissue uptake at 1 h ([1]; Bone uptake): 1.7 ± 0.4 %ID/g
- tissue uptake at 4 h ([1]; Bone uptake): 0.73 ± 0.06 %ID/g
- tissue uptake at 24 h ([1]; Bone uptake): 0.19 ± 0.03 %ID/g
- tissue uptake at 48 h ([1]; Bone uptake): 0.11 ± 0.02 %ID/g
- tissue uptake at 1 h ([1]; Brain uptake): 0.28 ± 0.03 %ID/g
- tissue uptake at 4 h ([1]; Brain uptake): 0.12 ± 0.23 %ID/g
- tissue uptake at 24 h ([1]; Brain uptake): < 0.03 %ID/g
- tissue uptake at 48 h ([1]; Brain uptake): < 0.03 %ID/g
- tissue uptake at 1 h ([1]; HEK-uPAR xenograft uptake): 13 ± 2 %ID/g
- tissue uptake at 4 h ([1]; HEK-uPAR xenograft uptake): 16 ± 2 %ID/g
- tissue uptake at 24 h ([1]; HEK-uPAR xenograft uptake): 7.9 ± 0.9 %ID/g
- tissue uptake at 48 h ([1]; HEK-uPAR xenograft uptake): 5.3 ± 0.7 %ID/g
- tissue uptake at 1 h ([1]; Heart uptake): 4.9 ± 0.3 %ID/g
- tissue uptake at 4 h ([1]; Heart uptake): 1.8 ± 0.2 %ID/g
- tissue uptake at 24 h ([1]; Heart uptake): 0.12 ± 0.02 %ID/g
- tissue uptake at 48 h ([1]; Heart uptake): 0.08 ± 0.01 %ID/g
- tissue uptake at 1 h ([1]; Intestines uptake): 1.8 ± 0.2 %ID/g
- tissue uptake at 4 h ([1]; Intestines uptake): 0.93 ± 0.11 %ID/g
- tissue uptake at 24 h ([1]; Intestines uptake): 0.19 ± 0.01 %ID/g
- tissue uptake at 48 h ([1]; Intestines uptake): 0.14 ± 0.03 %ID/g
- tissue uptake at 1 h ([1]; Kidneys uptake): 6.8 ± 0.9 %ID/g
- tissue uptake at 4 h ([1]; Kidneys uptake): 4 ± 0.4 %ID/g
- tissue uptake at 24 h ([1]; Kidneys uptake): 1.3 to 1.7 %ID/g
- tissue uptake at 48 h ([1]; Kidneys uptake): 1.1 ± 0.1 %ID/g
- tissue uptake at 1 h ([1]; Liver uptake): 4.5 ± 0.3 %ID/g
- tissue uptake at 4 h ([1]; Liver uptake): 1.8 ± 0.2 %ID/g
- tissue uptake at 24 h ([1]; Liver uptake): 0.33 ± 0.03 %ID/g
- tissue uptake at 48 h ([1]; Liver uptake): 0.25 ± 0.02 %ID/g
- tissue uptake at 1 h ([1]; Lung uptake): 7 ± 1.3 %ID/g
- tissue uptake at 4 h ([1]; Lung uptake): 3.1 ± 0.2 %ID/g
- tissue uptake at 24 h ([1]; Lung uptake): 0.29 ± 0.08 %ID/g
- tissue uptake at 48 h ([1]; Lung uptake): 0.17 ± 0.02 %ID/g
- tissue uptake at 1 h ([1]; Muscle uptake): 1.4 ± 0.3 %ID/g
- tissue uptake at 4 h ([1]; Muscle uptake): 0.63 ± 0.09 %ID/g
- tissue uptake at 24 h ([1]; Muscle uptake): 0.05 %ID/g
- tissue uptake at 48 h ([1]; Muscle uptake): 0.04 ± 0.01 %ID/g
- tissue uptake at 1 h ([1]; Pancreas uptake): 1.7 ± 0.2 %ID/g
- tissue uptake at 4 h ([1]; Pancreas uptake): 0.69 ± 0.05 %ID/g
- tissue uptake at 24 h ([1]; Pancreas uptake): 0.09 ± 0.02 %ID/g
- tissue uptake at 48 h ([1]; Pancreas uptake): 0.07 ± 0.02 %ID/g
- tissue uptake at 1 h ([1]; Salivary glands uptake): 2.9 ± 0.5 %ID/g
- tissue uptake at 4 h ([1]; Salivary glands uptake): 1.3 ± 0.2 %ID/g
- tissue uptake at 24 h ([1]; Salivary glands uptake): 0.17 ± 0.02 %ID/g
- tissue uptake at 48 h ([1]; Salivary glands uptake): 0.18 ± 0.04 %ID/g
- tissue uptake at 1 h ([1]; Spleen uptake): 2.2 ± 0.3 %ID/g
- tissue uptake at 4 h ([1]; Spleen uptake): 1.1 ± 0.1 %ID/g
- tissue uptake at 24 h ([1]; Spleen uptake): 0.49 ± 0.05 %ID/g
- tissue uptake at 48 h ([1]; Spleen uptake): 0.37 ± 0.05 %ID/g
- tissue uptake at 1 h ([1]; Stomach uptake): 1.8 ± 0.5 %ID/g
- tissue uptake at 4 h ([1]; Stomach uptake): 0.75 ± 0.19 %ID/g
- tissue uptake at 24 h ([1]; Stomach uptake): 0.12 ± 0.01 %ID/g
- tissue uptake at 48 h ([1]; Stomach uptake): 0.09 %ID/g
- Weaker affinity to mouse albumin than [177Lu]Lu-uPAR-02 [2]: 3.2 fold
- AUC0h→48h, HEK-uPAR xenograft [3]: 410 ± 21 % IA/g*h
- AUC0h→48h, blood [3]: 109 ± 6 % IA/g*h
- AUC0h→48h, kidneys [3]: 103 ± 5 % IA/g*h
- AUC0h→48h, liver [3]: 38 ± 2 % IA/g*h
- Blood AUC0h→48h relative to [177Lu]Lu-DOTA-AE105 [3]: 3.9 fold
- HEK-uPAR xenograft AUC0h→48h relative to [177Lu]Lu-DOTA-AE105 [3]: 16 fold
- Kidneys AUC0h→48h relative to [177Lu]Lu-DOTA-AE105 [3]: ~ 1.7 fold
- Liver AUC0h→48h relative to [177Lu]Lu-DOTA-AE105 [3]: ~ 5.5 fold
- Xenograft-to-blood AUC0h→48h ratio relative to [177Lu]Lu-DOTA-AE105 [3]: 4.2 fold
- Human blood plasma stability, intact radiopeptide ([4]; 1 h): 99 ± 1%
- Mouse blood plasma stability, intact radiopeptide ([4]; 1 h): 99 ± 1%
- Human blood plasma stability, intact radiopeptide ([4]; 4 h): 99 ± 1%
- Mouse blood plasma stability, intact radiopeptide ([4]; 4 h): 99 ± 1%
- Human blood plasma stability, intact radiopeptide ([4]; 24 h): 95 ± 1%
- Mouse blood plasma stability, intact radiopeptide ([4]; 24 h): 95 ± 1%
- Inverse relative albumin-binding affinity [5]: 1.00^b
- Weaker affinity to human albumin than [177Lu]Lu-uPAR-02 [5]: 4.6 fold
